# Structures can show the parent of a compound that is named as a salt.
# Assays:
# [1] = Plasma pharmacokinetics of irinotecan, SN-38, SN-38G and APC (HPLC, noncompartmental); conditions: for change of AUC when irinotecan administered immediately after epirubicin: Course 1 vs Course 2, paired t-test; for AUC in Course 1 compared to Course 2, higher by: second patient with elevated bilirubin (1.5 times ULN), irinotecan 80 mg m^−2; for SN-38G AUCt: mean ±s.d., dose standardised to 100 mg irinotecan
# Description: (§1) Atropine was administered if diarrhoea, abdominal cramping or other symptoms of early cholinergic syndrome occurred within 1 h of receiving irinotecan. […] Dexamethasone and a 5-HT3 antagonist were administered to all patients as standard premedications unless contraindicated.
# (§2) Samples were centrifuged immediately at room temperature, and plasma was separated and stored in aliquots at −20°C until analysis.
# Irinotecan, SN-38 and APC concentrations were determined using a high-performance liquid chromatography assay. […] The fluorescence detector was operated at an excitation wavelength of 372 nm, irinotecan and APC were monitored at an emission wavelength of 425 nm, while SN-38 and the internal standard were monitored at 535 nm. SN-38 glucuronide (SN-38G) concentrations were estimated as increases in SN-38 concentrations after incubation of plasma samples with β-glucuronidase.
# (§3) Pharmacokinetic parameters were determined by noncompartmental methods using WinNonlin (Version 3.0, Pharsight Corp., Mountain View, CA, USA). […] Pharmacokinetic parameters were compared using the paired t-test. A probability of P<0.05 was considered significant. The program S-PLUS for Windows (Version 6) (Insightful Corp., Seattle, WA, USA) was used for statistical analysis.
# clinical = conditions: for half-life: t1/2 (elimination half-life); for half-life / clearance: mean ±s.d.; for clearance: plasma, intravenous, CL (total body clearance)
# Description: as §1, §2
# Samples were added to C8 solid-phase extraction tubes and extracts were dried on an evaporator. […] The fluorescence detector was set at excitation 480 nm and emission 560 nm.
# as §3
# [2] = cited from earlier work; for AUC when given together with paclitaxel: attributed to vehicle Cremophor EL, ref Yamamoto et al, 1999; for AUC when given together with carboplatin: ref Okamoto et al, 1998
# [3] = design: method as in Vanhoefer et al, 2001; conditions: single-agent, weekly or every-3-week regimen; ref Vanhoefer et al, 2001; cited from earlier work
# [4] = system: patients with advanced solid tumours; conditions: triple combination, Day 1 every 3 weeks; normal total serum bilirubin
# Description: as §1
# [5] = human, plasma, intravenous, 100 mg
compound,measurement,setting,value
CCc1c2c(nc3ccc(OC(=O)N4CCC(NCCCCC(=O)O)CC4)cc13)-c1cc3c(c(=O)n1C2)COC(=O)[C@]3(O)CC [APC],change of AUC when irinotecan administered immediately after epirubicin,[1],increased significantly
same,APC AUCt,"[1]; human, in vivo, 100 mg",725 ± 460 ng·h/mL
same,"AUC in Course 1 compared to Course 2, higher by",[1],> 60%
"COc1cccc2c1C(=O)c1c(O)c3c(c(O)c1C2=O)C[C@@](O)([C@@H](O)CO)C[C@@H]3O[C@H]1C[C@H](N)[C@@H](O)[C@H](C)O1 [Epi-ol, epirubicinol]",Epi-ol AUCt,"clinical; human, in vivo, 100 mg",788 ± 482 ng·h/mL
"CCc1c2c(nc3ccc(O[C@@H]4O[C@H](C(=O)O)[C@@H](O)[C@H](O)[C@H]4O)cc13)-c1cc3c(c(=O)n1C2)COC(=O)[C@]3(O)CC [SN-38G, SN-38 glucuronide]",change of AUC when irinotecan administered immediately after epirubicin,[1],increased significantly
same,SN-38G AUCt,[1]; Irinotecan → epirubicin (Course 2),378 ± 223 ng·h/mL
same,SN-38G AUCt,[1]; Irinotecan+epirubicin (Course 1),558 ± 480 ng·h/mL
same,"AUC in Course 1 compared to Course 2, higher by",[1],> 60%
CCc1c2c(nc3ccc(O)cc13)-c1cc3c(c(=O)n1C2)COC(=O)[C@]3(O)CC [SN-38],AUC when given together with paclitaxel,[2],increased
same,AUC when irinotecan is coadministered with doxorubicin,"[2]; ref Dunphy et al, 2001",not increased
same,AUC when given together with carboplatin,[2],lower
same,SN-38 AUCt,"[1]; human, in vivo",102 ± 54 ng·h/mL
same,SN-38 AUCt,"[1]; human, in vivo, 100 mg",78 ± 36 ng·h/mL
COc1cccc2c1C(=O)c1c(O)c3c(c(O)c1C2=O)C[C@@](O)(C(=O)CO)C[C@@H]3O[C@H]1C[C@H](N)[C@@H](O)[C@H](C)O1 [epirubicin],Vd (apparent volume of distribution),"clinical; human, in vivo",2563 ± 1122 L
same,AUC(0-inf),"clinical; human, in vivo, 100 mg",910 ± 368 ng·h/mL
same,AUC(0-t),"clinical; human, in vivo, 100 mg",723 ± 296 ng·h/mL
same,Vd,"clinical; human, in vivo, Vd (apparent volume of distribution)",3480 ± 1940 L
same,half-life,"clinical; human, in vivo, Irinotecan → epirubicin (Course 2)",16 ± 7.8 h
same,half-life,"clinical; human, in vivo, Irinotecan+epirubicin (Course 1)",23.1 ± 10.8 h
same,clearance,"clinical; human, Irinotecan → epirubicin (Course 2)",2080 mL/min
same,clearance,"clinical; human, Irinotecan+epirubicin (Course 1)",1830 mL/min
same,effect of sequence of drug administration on pharmacokinetic parameters,clinical; in vivo,not affected by the sequence of drug administration
"CCc1c2c(nc3ccc(OC(=O)N4CCC(N5CCCCC5)CC4)cc13)-c1cc3c(c(=O)n1C2)COC(=O)[C@]3(O)CC [irinotecan, Irinotecan hydrochloride]",AUC when given together with paclitaxel,[2],increased
same,share of irinotecan and its metabolites excreted via the biliary tract,[2],Over 60%
same,doses up to which pharmacokinetics is linear,"[2]; ref Mathijssen et al, 2001",up to 180 mg m^−2
same,AUC when given together with carboplatin,[2],lower
same,share of the administered irinotecan dose converted to SN-38,"[2]; ref Slatter et al, 2000",less than 10%
same,frequency of grade 3/4 late diarrhoea,[3],> 20%
same,recommended phase II dose (MTD),[4],110 mg m^−2
same,AUC(0-inf),[1]; [5],2960 ± 1020 ng·h/mL
same,AUC(0-t),[1]; [5],2870 ± 916 ng·h/mL
